Molecular target: T1, human chymotrypsin-C (CTRC) (Homo sapiens, UniProt Q99895)
T1 sequence (Q99895 30-268): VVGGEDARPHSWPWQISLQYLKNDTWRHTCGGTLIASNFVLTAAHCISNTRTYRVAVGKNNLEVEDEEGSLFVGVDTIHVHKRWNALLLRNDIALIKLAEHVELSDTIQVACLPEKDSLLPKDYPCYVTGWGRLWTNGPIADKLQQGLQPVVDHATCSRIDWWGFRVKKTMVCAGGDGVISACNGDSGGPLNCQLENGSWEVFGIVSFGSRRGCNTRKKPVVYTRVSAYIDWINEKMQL
Assay: In vitro assessment of human chymotrypsin C
Format: biochemical
Conditions: 0, 1, 10, 100 µM; 30 min at 37 °C; OD405

SMILES: CC1=CC(=O)c2ccccc2C1=O [Entry 1, 2-Methyl-1,4-naphthoquinone (vitamin K3), reference compound]
- inhibition of human CTRC activity (in words): selectively inhibit SARS-CoV-2 and SARS-CoV 3CL^pro, rather than human CTRC

— PMC8064871 (International Journal of Biological Macromolecules, 2021)
